One may read the IC50 as the concentration that gives 50% inhibition.

Each structure is given as a SMILES string.

Drawing on ChEMBL document CHEMBL3813611, “Antiprotozoal activity of bicycles featuring a dimethylamino group at their bridgehead” (Bioorg Med Chem, 2016), this text covers IC50 and selectivity ratio for 22 compounds.

The test system of one series is L6. Put plainly: Cytotoxicity against rat L6 cells assessed as reduction in cell viability after 72 hrs by Alamar blue assay. It is filed as cell-based. As to conditions: L6, 72 h. For orientation: Alamar Blue is a resazurin reagent that responds to reducing activity.
Series [1] concerns Trypanosoma brucei rhodesiense. Put plainly: Antitrypanosomal activity against Trypanosoma brucei rhodesiense STIB 900 bloodstream forms after 72 hrs by Alamar blue assay. It is filed as functional, organism-based. The following applies: STIB 900, 72 h.
Series [2] can be described thus: Selectivity index, ratio of IC50 for rat L6 cells to IC50 for chloroquine/pyrimethamine resistant Plasmodium falciparum K1 infected in human red blood cells. In kind it is toxicity, cell-based. The following applies: read-out: Ratio IC50.
A short description of series [3]: Selectivity index, ratio of IC50 for rat L6 cells to IC50 for Trypanosoma brucei rhodesiense STIB 900 bloodstream forms. It is filed as toxicity, cell-based. The following applies: read-out: Ratio IC50.
For another series, the system named is Plasmodium falciparum. Put plainly: Antiplasmodial activity against chloroquine/pyrimethamine resistant Plasmodium falciparum K1 infected in human red blood cells after 48 hrs by [3H]hypoxanthine incorporation assay. In kind it is functional, organism-based.

In the case of `CN(C)C12CC(c3ccccc3)C(CN(C(=O)CCN3CCCCC3)C1)C(c1ccccc1)C2` (racemic), the half-maximal inhibitory concentration (IC50) in the series on L6 worked out at 12.4 µM; in series [1], 1.23 µM; in the series on Plasmodium falciparum it was 0.052 µM. In addition, the selectivity ratio came to 238 in series [2] and 10.1 in series [3].
With `CN(C)C12CC(c3ccccc3)C(CN(CCN3CCCC3)C1)C(c1ccccc1)C2` (racemic), the IC50 is 5.58 µM in the series with L6, 0.54 µM in series [1] and 0.29 µM with Plasmodium falciparum. Also, the selectivity ratio in series [2] turned out to be 19.2; in series [3], 10.3.
For `CCN(CC)CCC(=O)N1CC2C(c3ccccc3)CC(N(C)C)(CC2c2ccccc2)C1` (racemic) the same measures were 15.4 µM, 1.46 µM, 0.39 µM, 39.6 and 20.6.
On the same counts, the results for `CN(C)C12CCN(C(=O)CN3CCCCC3)C(C(c3ccccc3)C1)C(c1ccccc1)C2` (stereo not drawn) are 141 µM, 9.47 µM, 1.72 µM, 82.2 and 14.9.
On the same counts, the results for `CN(C)C12CC(c3ccccc3)C(CN(C(=O)CN3CCCCC3)C1)C(c1ccccc1)C2` (racemic) are 12.1 µM, 2.4 µM, 0.4 µM, 30.3 and 5.05.
Turning to `CN(C)C12CCN(CCN3CCCCC3)C(C(c3ccccc3)C1)C(c1ccccc1)C2` (racemic), the IC50 with L6 worked out at 135 µM; in series [1], 2.62 µM; in the series on Plasmodium falciparum, 0.87 µM. Also, the selectivity ratio in series [2] was found to be 155; in series [3], 51.6.
For the compound `CN1CCN(CC(=O)N2CC3C(c4ccccc4)CC(N(C)C)(CC3c3ccccc3)C2)CC1` (racemic), the IC50 with L6 was found to be 9.25 µM; in series [1], 1.47 µM; in the series with Plasmodium falciparum, 0.43 µM. In addition, the selectivity ratio in series [2] worked out at 21.5; in series [3], 6.29.
On to `CCN(CC)CCCN1CC2C(c3ccccc3)CC(N(C)C)(CC2c2ccccc2)C1` (racemic), for which the IC50 with L6 was 3.27 µM; in series [1], 0.46 µM; in the series on Plasmodium falciparum it was 0.065 µM. For the same compound, the results for the selectivity ratio in series [2] and in series [3] were 50.3 and 7.11, respectively.
For the compound `CN(C)C12CC(c3ccccc3)C(CN(C(=O)CN3CCCC3)C1)C(c1ccccc1)C2` (racemic), the IC50 in the series on L6 was 12.6 µM; in series [1], 2.16 µM; with Plasmodium falciparum it was 0.24 µM. Also, the selectivity ratio in series [2] was determined as 52.4; in series [3] it was 5.82.
For `CN(C)C12CC(c3ccccc3)C(CN(CCCN3CCCCC3)C1)C(c1ccccc1)C2` (racemic) the same measures were 1.75 µM, 0.15 µM, 0.19 µM, 9.21 and 11.7.
On the same counts, the results for `CN1CCN(CCN2CC3C(c4ccccc4)CC(N(C)C)(CC3c3ccccc3)C2)CC1` (racemic) are 5.26 µM, 0.27 µM, 0.25 µM, 21 and 19.5.
For `CCN(CC)CCN1CCC2(N(C)C)CC(c3ccccc3)C1C(c1ccccc1)C2` (racemic) the same measures were 101 µM, 1.79 µM, 0.71 µM, 142 and 56.5.
Turning to `CN(C)C12CC(c3ccccc3)C(CN(CCCN3CCCC3)C1)C(c1ccccc1)C2` (racemic), the IC50 was 1.55 µM in the series on L6, 0.16 µM in series [1] and 0.15 µM with Plasmodium falciparum. Moreover, the values for the selectivity ratio in series [2] and in series [3] were 10.3 and 9.69, respectively.
Consider `CN1CCN(CCC(=O)N2CC3C(c4ccccc4)CC(N(C)C)(CC3c3ccccc3)C2)CC1` (racemic), for which the values for the IC50 (in the series with L6; in series [1]; in the series with Plasmodium falciparum) were 13 µM, 1.52 µM and 0.18 µM, respectively. Besides, the figures for the selectivity ratio in series [2] and in series [3] were 72.1 and 8.54, respectively.
For `CCN(CC)CC(=O)N1CCC2(N(C)C)CC(c3ccccc3)C1C(c1ccccc1)C2` (stereo not drawn) the same measures were 89.6 µM, 5.21 µM, 1.3 µM, 68.9 and 17.2.
With `CN(C)C12CC(c3ccccc3)C(CN(CCN3CCCCC3)C1)C(c1ccccc1)C2` (racemic), the values for the IC50 (in the series with L6; in series [1]; in the series on Plasmodium falciparum) were 2.92 µM, 0.12 µM and 0.09 µM, respectively. Besides, the selectivity ratio was 32.4 in series [2] and 24.3 in series [3].
As to `C[C@@H]1CC[C@H]2[C@@H](C)C(=O)O[C@@H]3O[C@@]4(C)CC[C@@H]1[C@]32OO4` [ARTEMISININ], the selectivity ratio in series [2] was found to be 70400. The IC50 in the series with Plasmodium falciparum was determined as 0.0064 µM.
As for `CN1CCN(CCCN2CC3C(c4ccccc4)CC(N(C)C)(CC3c3ccccc3)C2)CC1` (racemic), the IC50 with L6 is 0.2 µM; in series [1] it was 0.11 µM; with Plasmodium falciparum, 0.15 µM. For the same compound, the selectivity ratio turned out to be 1.33 in series [2] and 1.82 in series [3].
For `CN(C)C12CC(c3ccccc3)C(CN(C(=O)CCN3CCCC3)C1)C(c1ccccc1)C2` (racemic) the same measures were 11.7 µM, 1.57 µM, 0.22 µM, 53.3 and 7.46.
Turning to `Nc1nc(N)nc(Nc2ccc([As]3SCC(CO)S3)cc2)n1` (stereo not drawn) [MELARSOPROL], the selectivity ratio in series [3] came out at 2000.
As for `CN(C)C12CC(NC(=O)CCN3CCCCC3)C(C(c3ccccc3)C1)C(c1ccccc1)C2` (racemic), the IC50 in the series on L6 worked out at 7.85 µM; in series [1], 1.49 µM; in the series with Plasmodium falciparum, 0.69 µM. For the same compound, the selectivity ratio amounted to 11.4 in series [2] and 5.27 in series [3].
In the case of `CN(C)C12CC(NC(=O)CN3CCCCC3)C(C(c3ccccc3)C1)C(c1ccccc1)C2` (racemic), the IC50 in the series on L6 was 7.16 µM; in series [1], 0.48 µM; in the series on Plasmodium falciparum it was 0.11 µM. The selectivity ratio is 65.1 in series [2] and 14.9 in series [3].
